molecular target: PI3K isoform δ (Homo sapiens (Human), UniProt O00329); assay: TR-FRET assay of enzymatic activity of class I PI3K isoforms; conditions: not given
Sequence (O00329 whole entry, canonical isoform): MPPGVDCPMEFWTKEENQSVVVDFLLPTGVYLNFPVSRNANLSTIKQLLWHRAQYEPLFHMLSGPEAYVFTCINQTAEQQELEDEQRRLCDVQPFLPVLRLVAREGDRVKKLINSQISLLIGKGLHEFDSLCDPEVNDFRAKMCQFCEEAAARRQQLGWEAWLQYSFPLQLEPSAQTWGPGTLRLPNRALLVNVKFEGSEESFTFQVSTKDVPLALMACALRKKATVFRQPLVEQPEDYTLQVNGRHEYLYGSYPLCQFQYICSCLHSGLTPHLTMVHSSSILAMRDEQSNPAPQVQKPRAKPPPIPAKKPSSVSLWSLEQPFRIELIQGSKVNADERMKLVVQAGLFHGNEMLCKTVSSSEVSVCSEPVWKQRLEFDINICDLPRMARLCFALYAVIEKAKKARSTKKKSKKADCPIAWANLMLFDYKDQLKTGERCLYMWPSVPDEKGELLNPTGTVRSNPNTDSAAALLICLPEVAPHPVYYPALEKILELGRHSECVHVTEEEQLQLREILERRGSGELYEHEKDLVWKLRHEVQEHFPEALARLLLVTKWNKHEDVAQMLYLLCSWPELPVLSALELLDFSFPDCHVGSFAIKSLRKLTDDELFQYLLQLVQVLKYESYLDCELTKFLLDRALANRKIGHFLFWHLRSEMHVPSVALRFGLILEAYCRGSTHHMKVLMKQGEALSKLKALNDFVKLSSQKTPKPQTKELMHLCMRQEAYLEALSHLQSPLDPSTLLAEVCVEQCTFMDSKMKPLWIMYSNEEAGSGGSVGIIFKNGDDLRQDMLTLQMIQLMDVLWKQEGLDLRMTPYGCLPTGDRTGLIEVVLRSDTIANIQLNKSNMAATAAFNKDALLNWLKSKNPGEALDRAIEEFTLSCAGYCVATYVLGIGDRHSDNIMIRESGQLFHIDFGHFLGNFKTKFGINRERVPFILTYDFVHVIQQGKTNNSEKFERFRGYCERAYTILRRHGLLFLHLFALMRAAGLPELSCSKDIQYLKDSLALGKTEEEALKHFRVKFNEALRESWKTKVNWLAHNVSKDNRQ
Sequence (P27986 whole entry partner, canonical isoform): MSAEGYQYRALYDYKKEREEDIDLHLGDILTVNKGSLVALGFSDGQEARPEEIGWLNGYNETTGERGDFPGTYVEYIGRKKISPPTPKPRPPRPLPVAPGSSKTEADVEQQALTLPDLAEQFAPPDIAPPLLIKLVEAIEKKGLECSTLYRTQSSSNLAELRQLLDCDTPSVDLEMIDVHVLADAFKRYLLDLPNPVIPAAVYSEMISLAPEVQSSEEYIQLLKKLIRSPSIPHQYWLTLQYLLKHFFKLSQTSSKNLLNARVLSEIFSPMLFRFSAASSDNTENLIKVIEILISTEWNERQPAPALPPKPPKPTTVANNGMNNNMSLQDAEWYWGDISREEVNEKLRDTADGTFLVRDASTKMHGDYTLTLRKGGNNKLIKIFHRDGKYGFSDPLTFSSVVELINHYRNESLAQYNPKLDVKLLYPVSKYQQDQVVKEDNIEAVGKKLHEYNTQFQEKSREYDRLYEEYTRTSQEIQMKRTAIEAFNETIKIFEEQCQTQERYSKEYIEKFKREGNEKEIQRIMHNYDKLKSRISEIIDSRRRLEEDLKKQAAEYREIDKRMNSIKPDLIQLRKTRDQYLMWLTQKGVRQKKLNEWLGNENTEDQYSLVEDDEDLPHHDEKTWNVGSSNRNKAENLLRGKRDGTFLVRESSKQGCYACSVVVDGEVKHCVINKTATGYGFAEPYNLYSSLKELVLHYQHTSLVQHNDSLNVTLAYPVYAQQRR

Row | IC50 | Structure (SMILES)
1 | 2 nM | N#Cc1c(N)nc(N)nc1N1CCC[C@H]1c1nc2cccc(S(=O)(=O)c3ccccc3)c2c(=O)n1-c1cccc(F)c1 [Compound 77]

same assay, conditions: IC50 (nM) for PI3K isoform δ (Table 3), TR-FRET; 2× Km ATP, 2 μM PIP2; incubated for 30 minutes at 25° C.

Row | IC50 | Structure (SMILES)
2 | 30 nM | C[C@H](Nc1nc(N)nc(Cl)c1C#N)c1nc2cccc(F)c2c(=O)n1-c1cc(F)cc(F)c1 [Compound 102, (S)-2-amino-4-chloro-6-((1-(3-(3,5-difluorophenyl)-5-chloro-4-oxo-3-phenyl-3,4-dihydroquinazolin-2-yl)ethyl)amino)pyrimidine-5-carbonitrile]

same assay, conditions: read-out: IC50 (nM) for PI3K isoform δ (Table 3); TR-FRET; 2× Km ATP, 2 μM PIP2; incubated for 30 minutes at 25° C.

Row | Structure (SMILES) | IC50
3 | CS(=O)(=O)c1cccc2nc([C@@H]3CCCN3c3nc(N)nc(N)c3C#N)n(-c3cccc(F)c3)c(=O)c12 [Compound 72, (S)-2,4-diamino-6-(2-(3-(3-fluorophenyl)-5-(methylsulfonyl)-4-oxo-3,4-dihydroquinazolin-2-yl)pyrrolidin-1-yl)pyrimidine-5-carbonitrile] | 4 nM
4 | C[C@H](Nc1nc(N)nc(N)c1C#N)c1nc2cccc(SCCO)c2c(=O)n1-c1cccc(F)c1 [Compound 79, (S)-2,4-diamino-6-((1-(3-(3-fluorophenyl)-5-((2-hydroxyethyl)thio)-4-oxo-3,4-dihydroquinazolin-2-yl)ethyl)amino)pyrimidine-5-carbonitrile] | 51 nM
5 | C[C@H](Nc1nc(N)nc(N)c1C#N)c1nc2cccc(S(=O)(=O)C3CCCC3)c2c(=O)n1-c1cccc(F)c1 [Compound 80, (S)-2,4-diamino-6-((1-(5-(cyclopentylsulfonyl)-3-(3-fluorophenyl)-4-oxo-3,4-dihydroquinazolin-2-yl)ethyl)amino)pyrimidine-5-carbonitrile] | 61 nM
6 | C[C@H](Nc1nc(N)nc(N)c1C#N)c1nc2cccc(S(=O)(=O)CCN3CCCC3)c2c(=O)n1-c1cccc(F)c1 [Compound 82, (S)-2,4-diamino-6-((1-(3-(3-fluorophenyl)-4-oxo-5-((2-(pyrrolidin-1-yl)ethyl)sulfonyl)-3,4-dihydroquinazolin-2-yl)ethyl)amino)pyrimidine-5-carbonitrile] | 2 nM
7 | N#Cc1c(N)nc(N)nc1N1CCC[C@H]1c1nc2cccc(Cl)c2c(=O)n1-c1cc(F)cc(F)c1 [Compound 83, (S)-2,4-diamino-6-(2-(5-chloro-3-(3,5-difluorophenyl)-4-oxo-3,4-dihydroquinazolin-2-yl)pyrrolidin-1-yl)pyrimidine-5-carbonitrile] | 2 nM
8 | Cc1cccc2c(=O)n(-c3cc(F)cc(F)c3)c([C@@H]3CCCN3c3nc(N)nc(N)c3C#N)nc12 [Compound 86, (S)-2,4-diamino-6-(2-(3-(3,5-difluorophenyl)-8-methyl-4-oxo-3,4-dihydroquinazolin-2-yl)pyrrolidin-1-yl)pyrimidine-5-carbonitrile] | 12 nM
9 | N#Cc1c(N)nc(N)nc1N1CCC[C@H]1c1nc2cccc(C#N)c2c(=O)n1-c1ccccc1 [Compound 89, (S)-2-(1-(2,6-diamino-5-cyanopyrimidin-4-yl)pyrrolidin-2-yl)-4-oxo-3-phenyl-3,4-dihydroquinazoline-5-carbonitrile] | 2 nM
10 | N#Cc1c(N)nc(N)nc1N1C[C@H](F)C[C@H]1c1nc2cccc(Cl)c2c(=O)n1-c1cc(F)cc(F)c1 [Compound 95, 2,4-diamino-6-((2S,4R)-2-(5-chloro-3-(3,5-difluorophenyl)-4-oxo-3,4-dihydroquinazolin-2-yl)-4-fluoropyrrolidin-1-yl)pyrimidine-5-carbonitrile] | 160 nM
11 | Cc1nc(N)nc(N[C@@H](C)c2nc3cccc(Cl)c3c(=O)n2-c2ccccc2)c1I [Compound 97, (S)-2-(1-((2-amino-5-iodo-6-methylpyrimidin-4-yl)amino)ethyl)-5-chloro-3-phenylquinazolin-4(3H)-one] | 0.6 nM
12 | Cc1nc(N)c(C#N)c(N[C@@H](C)c2nc3cccc(Cl)c3c(=O)n2-c2ccccc2)n1 [Compound 98, (S)-4-amino-6-((1-(5-chloro-4-oxo-3-phenyl-3,4-dihydroquinazolin-2-yl)ethyl)amino)-2-methylpyrimidine-5-carbonitrile] | 10 nM
13 | Nc1nc(N)c(Cl)c(N2CCOC[C@H]2c2nc3cccc(Cl)c3c(=O)n2-c2ccccc2)n1 [Compound 100, (R)-5-chloro-2-(4-(2,6-diamino-5-chloropyrimidin-4-yl)morpholin-3-yl)-3-phenylquinazolin-4(3H)-one] | 8400 nM

Second part, the compound after the results:

Row | IC50 | Structure (SMILES)
14 | 3 nM | N#Cc1c(N)nc(N)nc1N1CCC[C@H]1c1nc2cccc(CCCC(=O)O)c2c(=O)n1-c1ccccc1 [Compound 70, (S)-4-(2-(1-(2,6-diamino-5-cyanopyrimidin-4-yl)pyrrolidin-2-yl)-4-oxo-3-phenyl-3,4-dihydroquinazolin-5-yl)butanoic acid]
15 | 2 nM | C[C@H](Nc1nc(N)nc(N)c1C#N)c1nc2cccc(CCCC(=O)O)c2c(=O)n1-c1cc(F)cc(F)c1 [Compound 71, (S)-4-(2-(1-((2,6-diamino-5-cyanopyrimidin-4-yl)amino)ethyl)-3-(3,5-difluorophenyl)-4-oxo-3,4-dihydroquinazolin-5-yl)butanoic acid]
16 | 1.2 nM | CS(=O)(=O)c1cccc2nc([C@@H]3CCCN3c3nc(N)nc(N)c3C#N)n(-c3c(F)cccc3F)c(=O)c12 [Compound 75, (S)-2,4-diamino-6-(2-(3-(2,6-difluorophenyl)-5-(methylsulfonyl)-4-oxo-3,4-dihydroquinazolin-2-yl)pyrrolidin-1-yl)pyrimidine-5-carbonitrile]
17 | 1.3 nM | C[C@H](Nc1nc(N)nc(N)c1C#N)c1nc2cccc(S(=O)(=O)c3ccccc3)c2c(=O)n1-c1cccc(F)c1 [Compound 76, (S)-2,4-diamino-6-((1-(3-(3-fluorophenyl)-4-oxo-5-(phenylsulfonyl)-3,4-dihydroquinazolin-2-yl)ethyl)amino)pyrimidine-5-carbonitrile]
18 | 9 nM | C[C@H](Nc1nc(N)nc(N)c1C#N)c1nc2cccc(S(=O)(=O)CCO)c2c(=O)n1-c1cccc(F)c1 [Compound 78, (S)-2,4-diamino-6-((1-(3-(3-fluorophenyl)-5-((2-hydroxyethyl)sulfonyl)-4-oxo-3,4-dihydroquinazolin-2-yl)ethyl)amino)pyrimidine-5-carbonitrile]
19 | 6 nM | Cc1ccccc1S(=O)(=O)c1cccc2nc([C@H](C)Nc3nc(N)nc(N)c3C#N)n(-c3cccc(F)c3)c(=O)c12 [Compound 81, (S)-2,4-diamino-6-((1-(3-(3-fluorophenyl)-4-oxo-5-(o-tolylsulfonyl)-3,4-dihydroquinazolin-2-yl)ethyl)amino)pyrimidine-5-carbonitrile]
20 | 4 nM | Cc1ccc(Cl)c2c(=O)n(-c3cc(F)cc(F)c3)c([C@@H]3CCCN3c3nc(N)nc(N)c3C#N)nc12 [Compound 84, (S)-2,4-diamino-6-(2-(5-chloro-3-(3,5-difluorophenyl)-8-methyl-4-oxo-3,4-dihydroquinazolin-2-yl)pyrrolidin-1-yl)pyrimidine-5-carbonitrile]
21 | 10 nM | N#Cc1c(N)nc(N)nc1N1CCC[C@H]1c1nc2c(Cl)cccc2c(=O)n1-c1cc(F)cc(F)c1 [Compound 85, (S)-2,4-diamino-6-(2-(8-chloro-3-(3,5-difluorophenyl)-4-oxo-3,4-dihydroquinazolin-2-yl)pyrrolidin-1-yl)pyrimidine-5-carbonitrile]
22 | 23 nM | N#Cc1c(N)nc(N)nc1N1CCC[C@H]1c1nc2cccc(F)c2c(=O)n1-c1cc(F)cc(F)c1 [Compound 87, (S)-2,4-diamino-6-(2-(3-(3,5-difluorophenyl)-5-fluoro-4-oxo-3,4-dihydroquinazolin-2-yl)pyrrolidin-1-yl)pyrimidine-5-carbonitrile]
23 | 17 nM | N#Cc1cc(F)cc(-n2c([C@@H]3CCCN3c3nc(N)nc(N)c3C#N)nc3cccc(Cl)c3c2=O)c1 [Compound 88, (S)-2,4-diamino-6-(2-(5-chloro-3-(3-cyano-5-fluorophenyl)-4-oxo-3,4-dihydroquinazolin-2-yl)pyrrolidin-1-yl)pyrimidine-5-carbonitrile]
24 | 5 nM | N#Cc1c(N)nc(N)nc1N1CCC[C@H]1c1nc2c(C#N)cccc2c(=O)n1-c1cccc(C(F)F)c1 [Compound 90, (S)-2-(1-(2,6-diamino-5-cyanopyrimidin-4-yl)pyrrolidin-2-yl)-3-(3-(difluoromethyl)phenyl)-4-oxo-3,4-dihydroquinazoline-8-carbonitrile]
25 | 17 nM | N#Cc1c(N)nc(N)nc1N1CCC[C@H]1c1nc2c(Cl)ccc(Cl)c2c(=O)n1-c1cccc(S(N)(=O)=O)c1 [Compound 91, (S)-3-(5,8-dichloro-2-(1-(2,6-diamino-5-cyanopyrimidin-4-yl)pyrrolidin-2-yl)-4-oxoquinazolin-3(4H)-yl)benzenesulfonamide]
26 | 17 nM | C[C@H](Nc1nc(N)nc(N)c1C#N)c1nc2cccc(C3=CCNCC3)c2c(=O)n1-c1ccccc1 [Compound 93, (S)-2,4-diamino-6-((1-(4-oxo-3-phenyl-5-(1,2,3,6-tetrahydropyridin-4-yl)-3,4-dihydroquinazolin-2-yl)ethyl)amino)pyrimidine-5-carbonitrile]
27 | 2 nM | C[C@@H]1C[C@@H](c2nc3cccc(Cl)c3c(=O)n2-c2ccccc2)N(c2nc(N)nc(N)c2C#N)C1 [Compound 94, 2,4-diamino-6-((2S,4R)-2-(5-chloro-4-oxo-3-phenyl-3,4-dihydroquinazolin-2-yl)-4-methylpyrrolidin-1-yl)pyrimidine-5-carbonitrile]
28 | 0.1 nM | Cc1nc(N)nc(N[C@@H](C)c2nc3cccc(Cl)c3c(=O)n2-c2ccccc2)c1C#N [Compound 96, (S)-2-amino-4-((1-(5-chloro-4-oxo-3-phenyl-3,4-dihydroquinazolin-2-yl)ethyl)amino)-6-methylpyrimidine-5-carbonitrile]
29 | 1 nM | C[C@H](Nc1nc(N)nc(Cl)c1C#N)c1nc2cccc(Cl)c2c(=O)n1-c1ccccc1 [Compound 101, (S)-2-amino-4-chloro-6-((1-(5-chloro-4-oxo-3-phenyl-3,4-dihydroquinazolin-2-yl)ethyl)amino)pyrimidine-5-carbonitrile]

Reference: patent publication US9765060B2 (Gilead Sciences, Inc., priority 2014, dated 2017)
